The source of these data is patent US9457057B2, “Methods for the prevention and treatment of burn injuries and secondary complications” (The General Hospital Corporation, priority 2009, dated 2016).

One assay relates to Sprague-Dawley rats. Kind of assay: Wound contraction after burn injury, area of the scab (Example 3). The following applies: 65° C. water 25 sec, 1 mg IP one hour prior to burn, 1 mg topical, 1 mg IP every 12 h for 72 h, time points ≧8 days post-burn, p=0.06 by ANOVA. The format is in vivo, rat. As to the method:
Sprague-Dawley rats (male, 300-350 g) were pre-treated with 1 mg SS-31 peptide administered IP (this corresponds to about 3 mg/kg) one hour prior to burn (65° C. water for 25 sec on the lower back), followed by topical treatment (1 mg on top of the wound), and 1 mg SS-31 peptide administered IP every 12 h for 72 h. Wounds were observed up to ˜3 weeks post-burn. In general, the wounds took the appearance of a hard scab, and for the purpose of this experiment, the area of the scab was quantified as a measure of wound size. […] Treatment with SS-31 slowed the wound contraction, which indicates the burn injury was less severe compared to burns in animals without the peptide treatment. As such, the aromatic-cationic peptides of the invention are useful in methods of treating wounds associated with a burn injury.

Assay [1] relates to ATP synthesis rate (reaction PCr → γATP) in hindlimb skeletal muscle. Nature of the assay: In vivo 31P-NMR saturation transfer, ATP synthesis rate (reaction PCr→γATP), mouse burn model (Example 8). As to the method:
(§1) Materials and Methods. Male 6-week-old CD1 mice weighing 20-25 g were anesthetized by intraperitoneal (i.p.) injection of 40 mg/kg pentobarbital sodium. The left hind limb of all mice in all groups was shaved. Each burned mouse was subjected to a nonlethal scald injury of 3-5% total body surface area (TBSA) by immersing its left hind limb in 90° C. water for 3 sec.
(§2) NMR spectroscopy is described in detail in Padfield, et al., Proc Natl Acad Sci USA 102: 5368-5373 (2005). Briefly, mice were randomized into burn, burn+SS-31 peptide, control, and control+peptide groups. The SS-31 peptide (3 mg/kg) was injected intraperitoneally at 30 min prior to burn and a second injection immediately after the burn. NMR experiments were performed in a horizontal bore magnet (proton frequency 400 MHz, 21 cm diameter, Magnex Scientific) using a Bruker Avance console. A 90° pulse was optimized for detection of phosphorus spectra (repetition time 2 s, 400 averages, 4K data points). Saturation 90°-selective pulse trains (duration 36.534 ms, bandwidth 75 Hz) followed by crushing gradients were used to saturate the γ-ATP peak. The same saturation pulse train was also applied downfield of the inorganic phosphate (Pi) resonance, symmetrically to the γ-ATP resonance. T1 relaxation times of Pi and phosphocreatine (PCr) were measured using an inversion recovery pulse sequence in the presence of γ-ATP saturation. An adiabatic pulse (400 scans, sweep with 10 KHz, 4K data) was used to invert Pi and PCr, with an inversion time between 152 ms and 7651 ms.

Another assay concerns apoptosis in the liver. Kind of assay: Liver apoptosis by TUNEL method after burn injury (Example 2). The class given is in vivo, mouse. The conditions noted are these: C57BL mice, 30% TBSA burn, 5 mg/kg daily; days 1, 3, 7, effects most obvious on day 7 post-burn. On the procedure:
(§3) Systemic inflammatory response syndrome (SIRS) and multiple organ failure (MOF) are leading causes of morbidity and mortality in severe burn patients. In this Example, the effects of the aromatic-cationic peptides of the invention on liver damage in a mouse model of burn injury were examined. Six to eight week old male C57BL mice were subjected to 30% total body surface area (TBSA) burn injury and subsequently injected daily with saline or SS-31 peptide (5 mg/kg body weight). A weight- and time-matched sham-burn group subjected to lukewarm (˜37° C.) water but otherwise treated exactly the same served as controls (FIG. 3). The liver tissues were collected 1, 3, and 7 days after burn injury treatment and used to examine apoptosis by TUNEL method, activated caspase protein levels by Western blots, and caspase activity by an enzymatic reaction assay.

The test system of assay [2] is caspase-3. Nature of the assay: Liver caspase activity by an enzymatic reaction assay (Example 2). The format is in vivo, mouse. The conditions noted are these: C57BL mice, 30% TBSA burn, 5 mg/kg daily.
Excerpt: FIG. 6 is a graph showing caspase-3 activity from the various treatment groups of Example 2.
as §3

Assay [3] deals with Sprague Dawley rats. Nature of the assay: Indirect calorimetry after burn injury in a rat model (Example 1). The class given is in vivo. The following applies: 30% TBSA full thickness burn, SS-31 2 mg/kg IV q12h for three days, n = 3. On the procedure:
Sprague Dawley rats were randomized into three groups; sham-burn (SB), burn with saline treatment (B) and burn with peptide treatment (BP). Catheters were surgically placed into jugular vein and carotid artery. B and BP animals received 30% total body surface area full thickness burns by immersing the dorsal part into 100° C. water for 12 seconds with immediate fluid resuscitation. BP animals received IV injection of SS-31 (2 mg/kg every 12 h) for three days (FIG. 1). The EE of the animals were constantly monitored for 12 hours in a TSE Indirect Calorimetry System (TSE Co. Germany).

The next assay has as its system UCP-1. Nature of the assay: UCP-1 expression in brown adipose tissue by Western blot (Example 7). The format is in vivo, rat. The conditions noted are these: rats, III degree 30% TBSA burns; 2 mg/kg priming then 4 mg/kg/day infused 7 days; p=0.057. As to the method:
(§4) Methods. Sprague Dawley rats were randomly divided into 5 groups; sham (S), sham with saline treatment (SSal), sham with SS-31 treatment (SPep), burn with saline treatment (BSal) and burn with SS-31 treatment (BPep). In burn group, the back of animal was immersed into 100° C. water for 12 seconds to produce III degree 30% TBSA burns under general anesthesia. Sham burn was produced by immersing the lukewarm water in the same manner. Both groups of animals received 40 ml/kg intraperitoneal saline injection for the resuscitation following the injury. A venous catheter was placed surgically into the right jugular vein subsequent to sham or burn injury. SS-31 (2 mg/kg) or saline was injected as priming, and infused for 7 days (4 mg/kg/day) using osmotic pump (Durect, CA). […] The indirect calorimetry was performed for 24 hours at 6 days after burn injury in a TSE Indirect Calorimetry System (TSE Co. Germany), and VO2, VCO2 and energy expenditure were recorded every six minutes. Interscapullar brown adipose tissue was collected after the indirect calorimetry, and UCP-1 expression in the brown adipose tissue was evaluated by Western blot.
(A western blot detects proteins with antibodies after separation by electrophoresis.)

For another assay, the system named is protein oxidation. Nature of the assay: Liver protein oxidation by western blot (Example 2). The class given is in vivo, mouse. The following applies: C57BL mice, 30% TBSA burn, 5 mg/kg daily.
Excerpt: FIG. 7 is a photograph of a western blot analysis showing protein oxidation from the various treatment groups of Example 2.
as §3

For assay [4], the system named is redox state of the gastrocnemius muscle. Kind of assay: Redox state of gastrocnemius muscle by nitroxide EPR after local burn (Examples 4 and 8). The class given is in vivo, mouse. The conditions noted are these: mice. As to the method:
A clinically relevant murine nonlethal local burn injury model was used to address whether aromatic-cationic peptides can prevent/attenuate the adverse effects of burn injury on mitochondrial dysfunction and ER stress. The redox state of the gastrocnemius muscle immediately below a local cutaneous burn (90° for 3 sec) was evaluated by nitroxide EPR.
Next, the effect of SS-31 peptide treatment administered IP 30 min before burn, and immediately after burn (3 mg/kg each dose) was tested.
as §1
EPR spectroscopy is described in detail in Khan et al. “Burn Trauma in skeletal muscle results in oxidative stress as assessed by in vivo electron paramagnetic resonance.” Mol Med Reports 1: 813-819 (2008). Briefly, mice were randomized into burn, burn+SS-31 peptide and control groups. The SS-31 peptide (3 mg/kg) was injected intraperitoneally at 0, 3, 6, 24, and 48 hours post-burn. EPR measurements were carried out with a 1.2-GHz EPR spectrometer equipped with a microwave bridge and external loop resonator specially designed for in vive experiments. The optimal spectrometer parameters were: incident microwave power, 10 mW; magnetic field center, 400 gauss; modulation frequency, 27 kHz. The decay kinetics of intravenously-injected nitroxide (150 mg/kg) were measured at the various time points, which indicated the mitochondrial redox status of the muscle.

Assay [5] relates to Sprague Dawley rats. Nature of the assay: Indirect calorimetry 6 days after burn injury, 7-day infusion (Example 7). The format is in vivo, rat. The following applies: III degree 30% TBSA burns, 2 mg/kg priming then 4 mg/kg/day infused 7 days. As to the method: as §4
For assay [6], the system named is ATP synthesis rate (Pi→γATP) in hindlimb skeletal muscle. Kind of assay: In vivo 31P-NMR saturation transfer, ATP synthesis rate (Pi→γATP), mouse burn model (Examples 8 and 10). As to the method:
as §1
as §2, with “An adiabatic pulse (400 scans, sweep with 10 KHz, 4K data) was used to invert Pi and PCr, with an inversion time between 152 ms and 7651 ms.” left out
Values are means±SE; ΔM/M0 is the fractional change in Pi magnetization as a result of saturation transfer; T1obs is the observed spin lattice relaxation time of Pi during γATP saturation in seconds; ATP synthesis is calculated as [Pi]×k; [Pi] is the concentration of Pi extrapolated from the baseline NMR spectrum, comparing Pi and γATP peaks and ATP concentration measured with bioluminescence assay; k is calculated as (1/T1obs)×(ΔM/M0); P-values (unpaired Student's t-test) are for comparisons between experimental and control groups; * indicates only one dose of SS-31 peptide (3 mg/kg) was injected to animals immediately after burn.

The test system of another assay is mitochondrial aconitase. Nature of the assay: Mitochondrial aconitase activity in 5% TBSA mice burn model (Example 9). The format is in vivo, mouse. The conditions noted are these: burned animals. The source says: Mitochondrial aconitase is part of the TCA cycle and its activity has been directly correlated with the TCA flux. Moreover, its activity is inhibited by ROS and thus it is considered as an index of oxidative stress. Here we present the local and systematic effects of burn on the mitochondrial aconitase activity using a 5% TBSA mice burn model. The effects of a mitochondrial peptide (SS-31) had been also examined.

Assay [7] deals with caspase-3. Kind of assay: Activated caspase protein levels in liver by Western blots (Example 2). The format is in vivo, mouse. The conditions noted are these: C57BL mice, 30% TBSA burn, 5 mg/kg daily; day 3 and 7 post-burn. As to the method:
as §3

The mark [8] stands for this setting: Controls + Peptide (n = 5), unburned CD1 mice, 3 mg/kg IP two injections.
Setting [9] is: 3-5% TBSA burn, 3 mg/kg IP, 6 h after burn, p<0.05, 3 mg/kg.

Turning to “D-Arg-2′,6′-dimethyltyrosine-Lys-Phe-NH2 [SS-31]”, in the assay with Sprague-Dawley rats, the “rate of wound contraction (area of the scab)” value is reported as “slower rate of wound contraction”. Besides, the PCr in assay [1] (Burn + Peptide (n = 8), 3 mg/kg IP 30 min prior to burn and immediately after the burn) turned out to be 3.25 ± 0.29 µmol/g; in assay [1] (setting [8]) it was 3.76 ± 0.51 µmol/g. For the same substance, the “ATP synthesis rate (reaction PCr → γATP)” value in assay [1] (setting [8]) stood at 0.50 ± 0.06 µmol/g/s. For the same substance, the “number of liver cells undergoing apoptosis (TUNEL)” value in the assay with apoptosis in the liver is reported as “minimized the number of cells undergoing apoptosis”. Also, the “caspase activity in liver” value with caspase-3 [2] (day 3) is listed as “trend for the increased caspase activity following burn injury to reverse”; in the assay on caspase-3 [2] (post-burn day 7), “reduced the caspase activity to a level that was statistically not different from that of sham control group”. In the assay on Sprague Dawley rats [3], this substance registered an RER of 0.669 ± 0.005. Further, the “UCP-1 expression in brown adipose tissue, decrease in BPep group compared to BSal group” value in the assay with UCP-1 came to 32%. Moreover, the “protein oxidation following burn injury” value with protein oxidation is “decreased protein oxidation”. In assay [4] (setting [9]), the “redox status of burn+peptide group as compared to burn (EPR)” value is on record as “significant increase (recovery) in the redox status”. Further, the “redox status of burn+peptide group as compared to control (EPR)” value in assay [4] (setting [9]) is given as “significant decrease in the redox status”. In addition, in assay [4] (local burn, 3 mg/kg IP 30 min before burn and immediately after burn, 6 h timepoint), the “rate of nitroxide reduction in gastrocnemius muscle” value is “significantly increased the rate of nitroxide reduction”. Further, the “VO2, BPep group compared to BSal group” value in the assay on Sprague Dawley rats [5] (p<0.01) was “significantly attenuated”. In addition, the “VCO2, BPep group compared to BSal group” value with Sprague Dawley rats [5] (p<0.05) is recorded as “significantly attenuated”. Besides, the “energy expenditure, BPep group compared to BSal group” value with Sprague Dawley rats [5] (p<0.05) is recorded as “significantly attenuated”. Further, the Pi in [6] (Burn + Peptide (n = 8), 3 mg/kg IP 30 min before burn and immediately after burn, 6 hours after burn) stood at 2.93 ± 0.56 µmol/g; in [6] (Burn + Peptide* (n = 8), only one dose 3 mg/kg immediately after burn) it was 1.41 ± 0.26 µmol/g; in assay [6] (setting [8]) it was 5.49 ± 0.28 µmol/g. Further, the mitochondrial aconitase activity entry in the assay with mitochondrial aconitase is “decreased mitochondrial aconitase activity up to the control levels”. In addition, the “activated form of caspase-3 protein levels in liver” value with caspase-3 [7] was “reversed the increase in the activated form of caspase-3 protein levels on day 3 and 7 post-burn to the levels similar to those of sham control animals”.
